Our source for the IC50 and Ki values is ChEMBL document CHEMBL1909046, “DrugMatrix in vitro pharmacology data”.

Test [1] is described as follows: DRUGMATRIX: Calcium Channel Type L, Benzothiazepine radioligand binding (ligand: [3H] Diltiazem). The following applies: Not Active = under 50% inhibition at 10 µM. Type of test: cell membranes, Rattus norvegicus, Wistar, Brain, Membrane.
Test [2] is described as follows: DRUGMATRIX: Serotonin (5-Hydroxytryptamine) 5-HT3 radioligand binding (ligand: [3H] GR-65630). The test is classed as cell membranes, Membrane. The following applies: hek293; Not Active = under 50% inhibition at 10 µM.
The nature of test [3]: DRUGMATRIX: Sodium/nucleoside co-transporter radioligand binding (ligand: nitrobenzylthioinosine). The test is classed as cell membranes, Cavia porcellus, Dunkin-Hartley, Cerebral cortex, Membrane. The note with it: Not Active = under 50% inhibition at 10 µM.
For test [4], the target named is C-C chemokine receptor type 5 (Homo sapiens, UniProt P51681). Type of test: cell membranes, Membrane. The note with it: hek293. Also: in other assays of this panel Not Active means under 50% inhibition at 10 µM.
Chain of C-C chemokine receptor type 5 (P51681 whole entry): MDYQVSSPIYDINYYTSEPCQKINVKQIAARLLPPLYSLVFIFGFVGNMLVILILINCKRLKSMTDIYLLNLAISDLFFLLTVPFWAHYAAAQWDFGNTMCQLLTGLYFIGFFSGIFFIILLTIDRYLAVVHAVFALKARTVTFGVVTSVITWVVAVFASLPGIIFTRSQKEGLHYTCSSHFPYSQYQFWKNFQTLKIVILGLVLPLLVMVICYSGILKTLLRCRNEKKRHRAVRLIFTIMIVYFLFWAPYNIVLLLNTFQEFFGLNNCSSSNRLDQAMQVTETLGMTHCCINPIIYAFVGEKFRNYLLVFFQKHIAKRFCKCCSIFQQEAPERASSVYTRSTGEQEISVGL
The target in a further test is T1, B2 bradykinin receptor (Homo sapiens, UniProt P30411). Also: in other assays of this panel Not Active means under 50% inhibition at 10 µM.
T1 sequence (P30411 whole entry): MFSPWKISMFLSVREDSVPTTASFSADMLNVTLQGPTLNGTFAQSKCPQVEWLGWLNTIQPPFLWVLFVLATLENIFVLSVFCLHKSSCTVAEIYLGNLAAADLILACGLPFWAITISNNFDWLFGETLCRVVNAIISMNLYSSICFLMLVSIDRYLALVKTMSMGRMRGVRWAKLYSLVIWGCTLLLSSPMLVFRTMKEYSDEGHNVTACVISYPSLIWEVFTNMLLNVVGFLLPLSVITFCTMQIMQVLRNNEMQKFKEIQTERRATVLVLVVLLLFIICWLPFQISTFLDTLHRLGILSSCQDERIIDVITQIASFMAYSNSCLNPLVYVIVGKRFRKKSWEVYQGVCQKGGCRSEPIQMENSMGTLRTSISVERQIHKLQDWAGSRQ
The test is classed as cell membranes, Membrane. The note with it: chem-1.

Test [5] deals with T2, Receptor-type tyrosine-protein phosphatase C (Homo sapiens, UniProt P08575).
T2 sequence (P08575 whole entry): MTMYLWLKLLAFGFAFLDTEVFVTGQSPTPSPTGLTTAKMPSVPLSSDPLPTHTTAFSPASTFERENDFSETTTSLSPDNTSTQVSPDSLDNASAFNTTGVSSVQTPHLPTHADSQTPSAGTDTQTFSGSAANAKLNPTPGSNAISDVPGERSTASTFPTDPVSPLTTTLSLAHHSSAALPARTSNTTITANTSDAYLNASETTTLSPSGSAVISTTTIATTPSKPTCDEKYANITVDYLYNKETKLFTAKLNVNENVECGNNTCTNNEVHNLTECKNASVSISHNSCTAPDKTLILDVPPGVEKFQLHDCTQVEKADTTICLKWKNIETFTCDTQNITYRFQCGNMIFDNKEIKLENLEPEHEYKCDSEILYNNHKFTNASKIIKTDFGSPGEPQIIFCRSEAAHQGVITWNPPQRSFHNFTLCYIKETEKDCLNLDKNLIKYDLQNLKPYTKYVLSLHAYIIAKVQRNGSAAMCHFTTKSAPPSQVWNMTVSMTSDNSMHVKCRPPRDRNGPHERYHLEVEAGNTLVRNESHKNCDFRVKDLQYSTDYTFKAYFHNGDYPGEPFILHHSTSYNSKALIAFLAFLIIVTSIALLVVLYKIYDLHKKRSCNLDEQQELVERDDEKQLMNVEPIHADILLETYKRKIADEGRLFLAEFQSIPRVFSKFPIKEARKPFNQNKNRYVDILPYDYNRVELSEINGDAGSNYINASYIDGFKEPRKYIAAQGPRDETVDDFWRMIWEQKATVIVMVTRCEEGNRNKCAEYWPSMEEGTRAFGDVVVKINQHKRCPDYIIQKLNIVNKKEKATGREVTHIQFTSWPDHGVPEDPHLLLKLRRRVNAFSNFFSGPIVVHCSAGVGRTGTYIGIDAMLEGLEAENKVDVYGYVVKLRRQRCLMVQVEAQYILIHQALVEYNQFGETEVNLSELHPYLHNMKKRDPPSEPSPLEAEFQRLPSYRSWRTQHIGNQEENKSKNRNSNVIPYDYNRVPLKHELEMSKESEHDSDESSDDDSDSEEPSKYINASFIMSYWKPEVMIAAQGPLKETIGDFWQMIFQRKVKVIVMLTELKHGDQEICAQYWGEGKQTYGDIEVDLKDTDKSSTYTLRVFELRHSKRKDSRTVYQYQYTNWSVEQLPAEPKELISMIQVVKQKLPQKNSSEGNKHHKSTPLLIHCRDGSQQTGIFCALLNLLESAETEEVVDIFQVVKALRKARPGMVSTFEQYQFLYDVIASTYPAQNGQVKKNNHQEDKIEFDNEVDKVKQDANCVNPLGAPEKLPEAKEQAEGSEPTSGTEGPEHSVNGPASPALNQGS
Further details: species or system Escherichia coli.

Test [6] concerns the target Platelet-activating factor receptor (Homo sapiens, UniProt P25105). The test is classed as tissue-based. Also: in other assays of this panel Not Active means under 50% inhibition at 10 µM.
The target in test [7] is Protein kinase C alpha type (Homo sapiens, UniProt P17252). Type of test: cell-based. The following applies: sf9.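 Also: inhibition of PKCalpha kinase activity measured in an enzyme assay with histone as the phosphorylation substrate; in other assays of this panel Not Active means under 50% inhibition at 10 µM.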

Chain of Platelet-activating factor receptor (P25105 whole entry): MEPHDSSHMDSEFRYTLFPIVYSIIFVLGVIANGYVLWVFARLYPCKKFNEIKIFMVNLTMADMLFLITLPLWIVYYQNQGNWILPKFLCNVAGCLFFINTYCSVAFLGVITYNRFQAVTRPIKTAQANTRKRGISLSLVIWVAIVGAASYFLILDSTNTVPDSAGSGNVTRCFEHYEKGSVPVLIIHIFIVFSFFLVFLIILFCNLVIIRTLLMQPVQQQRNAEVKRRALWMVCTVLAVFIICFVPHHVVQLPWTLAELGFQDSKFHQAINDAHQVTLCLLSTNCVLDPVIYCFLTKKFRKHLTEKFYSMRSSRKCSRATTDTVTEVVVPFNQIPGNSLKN

For `CC(C)(C)NC(=O)[C@@H]1C[C@@H]2CCCC[C@@H]2CN1C[C@@H](O)[C@H](Cc1ccccc1)NC(=O)[C@H](CC(N)=O)NC(=O)c1ccc2ccccc2n1`, the half-inhibitory concentration (IC50) (commonly the concentration needed to halve the response being measured) in test [1] (read-out: IC50) is 10.9 µM; in test [2], “Not Active”; in test [3], “Not Active”; in test [4], “Not Active”; on B2 bradykinin receptor, “Not Active”; in test [5], “Not Active”. Further, the IC50 entry in test [6] and in test [7] was “Not Active” in each case. For the same compound, the Ki (usually a dissociation constant, usually derived from enzyme kinetics or from competition with a known ligand) in test [1] (read-out: Ki) was 9.69 µM; in test [2], “Not Active”; in test [3] it was “Not Active”.
On to `CC1(C)O[C@@H]2C[C@H]3[C@@H]4CCC5=CC(=O)C=C[C@]5(C)[C@@]4(F)[C@@H](O)C[C@]3(C)[C@]2(C(=O)CO)O1` [TRIAMCINOLONE ACETONIDE], for which the IC50 entry (in test [1]; in test [2]; in test [3]; in test [4]; on B2 bradykinin receptor; in test [5]) was “Not Active” throughout. The IC50 entry in test [6] and in test [7] was “Not Active” throughout. Besides, the Ki result in test [1], in test [2] and in test [3] was “Not Active” in each case.
Take `Cc1cccc(N(C)C(=S)Oc2ccc3ccccc3c2)c1` [TOLNAFTATE]: the IC50 result (in test [1]; in test [2]; in test [3]; in test [4]; against B2 bradykinin receptor; in test [5]) was “Not Active” throughout. Moreover, the 50% inhibitory concentration (IC50) result in test [6] and in test [7] was “Not Active” in each case. Besides, the Ki entry in test [1], in test [2] and in test [3] was “Not Active” in each case.
`C[C@@H]1CN(c2c(F)c(N)c3c(=O)c(C(=O)O)cn(C4CC4)c3c2F)C[C@H](C)N1` [SPARFLOXACIN]: the IC50 result (in test [1]; in test [2]; in test [3]; in test [4]; at B2 bradykinin receptor; in test [5]) was “Not Active” each time. The IC50 result in test [6] and in test [7] was “Not Active” in each case. Moreover, the Ki result in test [1], in test [2] and in test [3] was “Not Active” in each case.
For the compound `Cn1ccnc1S` [METHIMAZOLE], the IC50 entry (in test [1]; in test [2]; in test [3]; in test [4]; on B2 bradykinin receptor; in test [5]) was “Not Active” in each case. Further, the IC50 entry in test [6] and in test [7] was “Not Active” in each case. The Ki result in test [1], in test [2] and in test [3] was “Not Active” in each case.
On to `CN1CCN(CCCN2c3ccccc3Sc3ccc(Cl)cc32)CC1` [PROCHLORPERAZINE], for which the IC50 result (in test [4]; against B2 bradykinin receptor; in test [5]; in test [6]; in test [7]) was “Not Active” each time.
Regarding `C=CCC1(C(C)CCC)C(=O)NC(=O)NC1=O` (configuration not stated) [SECOBARBITAL], the IC50 entry (in test [1]; in test [2]; in test [3]; in test [4]; at B2 bradykinin receptor; in test [5]) was “Not Active” in each case. Further, the IC50 entry in test [6] and in test [7] was “Not Active” each time. Also, the Ki entry in test [1], in test [2] and in test [3] was “Not Active” each time.
On to `N[C@@H](Cc1ccc(N(CCCl)CCCl)cc1)C(=O)O`, for which the IC50 entry (in test [1]; in test [2]; in test [3]; in test [4]; against B2 bradykinin receptor; in test [5]) was “Not Active” in each case. The IC50 entry in test [6] and in test [7] was “Not Active” throughout. Moreover, the Ki result in test [1], in test [2] and in test [3] was “Not Active” throughout.
As to `Nc1nc2ccc(OC(F)(F)F)cc2s1` [RILUZOLE], the IC50 result (in test [1]; in test [2]; in test [3]; in test [4]; on B2 bradykinin receptor; in test [6]) was “Not Active” in each case. Moreover, the IC50 entry in test [7] was “Not Active”. The Ki result in test [1], in test [2], in test [3] and in test [5] was “Not Active” in each case.
For `N[C@@H]1[C@H]2CN(c3nc4c(cc3F)c(=O)c(C(=O)O)cn4-c3ccc(F)cc3F)C[C@@H]12` [TROVAFLOXACIN], the IC50 result (in test [1]; in test [2]; in test [3]; in test [4]; against B2 bradykinin receptor; in test [5]) was “Not Active” in each case. Further, the IC50 entry in test [6] and in test [7] was “Not Active” each time. In addition, the Ki entry in test [1], in test [2] and in test [3] was “Not Active” each time.
For `COc1c(C)c2c(c(O)c1C/C=C(\C)CCC(=O)O)C(=O)OC2` [MYCOPHENOLIC ACID], the IC50 result (in test [1]; in test [2]; in test [3]; in test [4]; at B2 bradykinin receptor; in test [5]) was “Not Active” in each case. The IC50 entry in test [6] and in test [7] was “Not Active” throughout. The Ki entry in test [1], in test [2] and in test [3] was “Not Active” in each case.
For `Cc1nc2n(c(=O)c1CCN1CCC(c3noc4cc(F)ccc34)CC1)CCCC2` [RISPERIDONE], the IC50 result (in test [4]; on B2 bradykinin receptor; in test [5]; in test [6]; in test [7]) was “Not Active” in each case.
`N[C@@H](Cc1cc(I)c(Oc2ccc(O)c(I)c2)c(I)c1)C(=O)O` [LIOTHYRONINE]: the IC50 entry (in test [4]; against B2 bradykinin receptor; in test [5]; in test [6]; in test [7]) was “Not Active” in each case.
`CCCCc1oc2ccccc2c1C(=O)c1cc(I)c(OCCN(CC)CC)c(I)c1` [AMIODARONE]: the IC50 entry in test [4], in test [5], in test [6] and in test [7] was “Not Active” each time.
As for `CC[C@@H](CO)NC(=O)[C@@H]1C=C2c3cccc4[nH]cc(c34)C[C@H]2N(C)C1` [METHYLERGONOVINE], the IC50 result (in test [1]; in test [3]; in test [4]; on B2 bradykinin receptor; in test [5]; in test [6]) was “Not Active” each time. Besides, the IC50 result in test [7] is “Not Active”. For the same compound, the Ki entry in test [1] and in test [3] was “Not Active” throughout.
`CC/C(=C(\c1ccccc1)c1ccc(OCCN(C)C)cc1)c1ccccc1` [TAMOXIFEN]: the IC50 entry in test [4], in test [5], in test [6] and in test [7] was “Not Active” in each case.
